# Several values for one entry are separate records, joined by “and”; a condition that tells them apart may be missing. Identical values can stand only once.
# Columns and labels:
# Assay type in all cases: cell-based
# 320 non-olfactory GPCRs [1] = target: T1, 320 non-olfactory GPCRs (Homo sapiens, UniProt P49190); set-up: GPCRome screening signal at PTGIR / GPCRome screening signal at PTH1R / GPCRome screening signal at PTH2R / GPCRome screening signal at QRFP / GPCRome screening signal at RXFP2 / GPCRome screening signal at RXFP3 / GPCRome screening signal at RXFP4 / GPCRome screening signal at S1PR2 / GPCRome screening signal at S1PR3 / GPCRome screening signal at S1PR4 / GPCRome screening signal at S1PR5 / GPCRome screening signal at SCTR / GPCRome screening signal at SSTR2 / GPCRome screening signal at SSSTR / GPCRome screening signal at SSTR4 / GPCRome screening signal at SSTR5 / GPCRome screening signal at SUCNR1 / GPCRome screening signal at TA1 / GPCRome screening signal at TAAR2 / GPCRome screening signal at TAAR5 / GPCRome screening signal at TAAR6 / GPCRome screening signal at TAAR8 / GPCRome screening signal at TACR1 / GPCRome screening signal at TACR2 / GPCRome screening signal at TACR3 / GPCRome screening signal at TBXA2R / GPCRome screening signal at TSHR / GPCRome screening signal at UTS2R / GPCRome screening signal at VIPR2 / GPCRome screening signal at GPR68 no V2 Tail / GPCRome screening signal at GRM2 / GPCRome screening signal at GRM3: reference not given here; details: receptor PTH2R
# T1 construct: expressed in transfected cells; host or cells: HTLA cells
# T1 sequence (P49190 25-550): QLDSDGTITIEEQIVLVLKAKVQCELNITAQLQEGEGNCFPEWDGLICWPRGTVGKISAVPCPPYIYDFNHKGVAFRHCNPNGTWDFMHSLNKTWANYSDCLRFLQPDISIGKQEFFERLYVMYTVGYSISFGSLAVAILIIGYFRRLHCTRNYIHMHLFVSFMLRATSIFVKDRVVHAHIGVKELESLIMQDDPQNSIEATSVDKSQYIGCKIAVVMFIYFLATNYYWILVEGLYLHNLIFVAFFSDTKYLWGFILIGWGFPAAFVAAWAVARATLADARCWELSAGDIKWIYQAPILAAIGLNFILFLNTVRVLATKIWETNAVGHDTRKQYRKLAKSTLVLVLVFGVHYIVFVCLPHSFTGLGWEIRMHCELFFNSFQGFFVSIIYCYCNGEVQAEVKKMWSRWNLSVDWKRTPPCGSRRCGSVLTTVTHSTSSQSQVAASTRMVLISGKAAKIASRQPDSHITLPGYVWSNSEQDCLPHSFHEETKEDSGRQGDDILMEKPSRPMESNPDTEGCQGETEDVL
# 320 non-olfactory GPCRs [2] = target: 320 non-olfactory GPCRs (Homo sapiens, UniProt Q03431); set-up: GPCRome screening signal at PTGIR / GPCRome screening signal at PTH1R / GPCRome screening signal at PTH2R / GPCRome screening signal at QRFP / GPCRome screening signal at RXFP2 / GPCRome screening signal at RXFP3 / GPCRome screening signal at RXFP4 / GPCRome screening signal at S1PR2 / GPCRome screening signal at S1PR3 / GPCRome screening signal at S1PR4 / GPCRome screening signal at S1PR5 / GPCRome screening signal at SCTR / GPCRome screening signal at SSTR2 / GPCRome screening signal at SSSTR / GPCRome screening signal at SSTR4 / GPCRome screening signal at SSTR5 / GPCRome screening signal at SUCNR1 / GPCRome screening signal at TA1 / GPCRome screening signal at TAAR2 / GPCRome screening signal at TAAR5 / GPCRome screening signal at TAAR6 / GPCRome screening signal at TAAR8 / GPCRome screening signal at TACR1 / GPCRome screening signal at TACR2 / GPCRome screening signal at TACR3 / GPCRome screening signal at TBXA2R / GPCRome screening signal at TSHR / GPCRome screening signal at UTS2R / GPCRome screening signal at VIPR2 / GPCRome screening signal at GPR68 no V2 Tail / GPCRome screening signal at GRM2 / GPCRome screening signal at GRM3: reference not given here; details: receptor PTH1R
# 320 non-olfactory GPCRs (Homo sapiens, UniProt Q03431), sequence (Q03431 27-593): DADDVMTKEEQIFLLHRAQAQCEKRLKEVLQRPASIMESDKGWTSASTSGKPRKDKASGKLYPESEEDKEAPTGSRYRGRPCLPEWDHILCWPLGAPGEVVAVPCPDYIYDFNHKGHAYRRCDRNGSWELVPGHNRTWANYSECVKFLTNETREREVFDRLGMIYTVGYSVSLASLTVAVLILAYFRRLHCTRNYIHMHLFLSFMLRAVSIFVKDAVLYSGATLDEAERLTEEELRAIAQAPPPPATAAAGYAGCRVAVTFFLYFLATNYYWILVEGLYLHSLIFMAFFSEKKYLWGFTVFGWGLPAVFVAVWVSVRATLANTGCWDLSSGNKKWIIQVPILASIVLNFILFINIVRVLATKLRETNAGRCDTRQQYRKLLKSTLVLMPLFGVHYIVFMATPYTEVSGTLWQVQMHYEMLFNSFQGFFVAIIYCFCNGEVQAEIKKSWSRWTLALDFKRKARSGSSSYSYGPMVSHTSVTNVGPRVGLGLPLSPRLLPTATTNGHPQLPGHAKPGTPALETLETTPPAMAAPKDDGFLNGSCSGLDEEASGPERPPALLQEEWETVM
# 320 non-olfactory GPCRs [3] = target: T2, 320 non-olfactory GPCRs (Homo sapiens, UniProt Q8WXD0); set-up: GPCRome screening signal at PTGIR / GPCRome screening signal at PTH1R / GPCRome screening signal at PTH2R / GPCRome screening signal at QRFP / GPCRome screening signal at RXFP2 / GPCRome screening signal at RXFP3 / GPCRome screening signal at RXFP4 / GPCRome screening signal at S1PR2 / GPCRome screening signal at S1PR3 / GPCRome screening signal at S1PR4 / GPCRome screening signal at S1PR5 / GPCRome screening signal at SCTR / GPCRome screening signal at SSTR2 / GPCRome screening signal at SSSTR / GPCRome screening signal at SSTR4 / GPCRome screening signal at SSTR5 / GPCRome screening signal at SUCNR1 / GPCRome screening signal at TA1 / GPCRome screening signal at TAAR2 / GPCRome screening signal at TAAR5 / GPCRome screening signal at TAAR6 / GPCRome screening signal at TAAR8 / GPCRome screening signal at TACR1 / GPCRome screening signal at TACR2 / GPCRome screening signal at TACR3 / GPCRome screening signal at TBXA2R / GPCRome screening signal at TSHR / GPCRome screening signal at UTS2R / GPCRome screening signal at VIPR2 / GPCRome screening signal at GPR68 no V2 Tail / GPCRome screening signal at GRM2 / GPCRome screening signal at GRM3: reference not given here; details: receptor RXFP2
# T2 construct: expressed in transfected cells; host or cells: HTLA cells
# T2 sequence (Q8WXD0 whole entry): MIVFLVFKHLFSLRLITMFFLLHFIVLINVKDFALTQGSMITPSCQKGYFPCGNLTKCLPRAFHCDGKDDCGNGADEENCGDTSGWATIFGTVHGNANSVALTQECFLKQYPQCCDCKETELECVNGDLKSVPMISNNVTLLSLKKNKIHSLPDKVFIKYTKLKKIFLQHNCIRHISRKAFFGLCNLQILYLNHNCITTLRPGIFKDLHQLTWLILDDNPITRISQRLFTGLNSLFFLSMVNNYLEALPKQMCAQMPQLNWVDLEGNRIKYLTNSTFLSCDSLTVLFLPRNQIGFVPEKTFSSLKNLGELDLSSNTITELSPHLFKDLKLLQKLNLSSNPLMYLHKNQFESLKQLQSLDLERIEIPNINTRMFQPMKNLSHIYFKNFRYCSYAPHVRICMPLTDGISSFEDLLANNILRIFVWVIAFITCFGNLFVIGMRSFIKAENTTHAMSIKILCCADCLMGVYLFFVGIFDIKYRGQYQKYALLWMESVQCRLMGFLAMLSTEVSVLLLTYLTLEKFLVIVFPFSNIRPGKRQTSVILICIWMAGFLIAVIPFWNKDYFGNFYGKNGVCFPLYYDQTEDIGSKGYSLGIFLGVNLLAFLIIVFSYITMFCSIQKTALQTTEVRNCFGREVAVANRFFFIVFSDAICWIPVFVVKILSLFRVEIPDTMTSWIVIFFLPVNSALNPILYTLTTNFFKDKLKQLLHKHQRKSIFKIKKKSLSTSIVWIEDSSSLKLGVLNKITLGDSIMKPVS
# 320 non-olfactory GPCRs [4] = target: 320 non-olfactory GPCRs (Homo sapiens, UniProt Q9H228); set-up: GPCRome screening signal at PTGIR / GPCRome screening signal at PTH1R / GPCRome screening signal at PTH2R / GPCRome screening signal at QRFP / GPCRome screening signal at RXFP2 / GPCRome screening signal at RXFP3 / GPCRome screening signal at RXFP4 / GPCRome screening signal at S1PR2 / GPCRome screening signal at S1PR3 / GPCRome screening signal at S1PR4 / GPCRome screening signal at S1PR5 / GPCRome screening signal at SCTR / GPCRome screening signal at SSTR2 / GPCRome screening signal at SSSTR / GPCRome screening signal at SSTR4 / GPCRome screening signal at SSTR5 / GPCRome screening signal at SUCNR1 / GPCRome screening signal at TA1 / GPCRome screening signal at TAAR2 / GPCRome screening signal at TAAR5 / GPCRome screening signal at TAAR6 / GPCRome screening signal at TAAR8 / GPCRome screening signal at TACR1 / GPCRome screening signal at TACR2 / GPCRome screening signal at TACR3 / GPCRome screening signal at TBXA2R / GPCRome screening signal at TSHR / GPCRome screening signal at UTS2R / GPCRome screening signal at VIPR2 / GPCRome screening signal at GPR68 no V2 Tail / GPCRome screening signal at GRM2 / GPCRome screening signal at GRM3: reference not given here; details: receptor S1PR5
# 320 non-olfactory GPCRs (Homo sapiens, UniProt Q9H228), sequence (Q9H228 whole entry): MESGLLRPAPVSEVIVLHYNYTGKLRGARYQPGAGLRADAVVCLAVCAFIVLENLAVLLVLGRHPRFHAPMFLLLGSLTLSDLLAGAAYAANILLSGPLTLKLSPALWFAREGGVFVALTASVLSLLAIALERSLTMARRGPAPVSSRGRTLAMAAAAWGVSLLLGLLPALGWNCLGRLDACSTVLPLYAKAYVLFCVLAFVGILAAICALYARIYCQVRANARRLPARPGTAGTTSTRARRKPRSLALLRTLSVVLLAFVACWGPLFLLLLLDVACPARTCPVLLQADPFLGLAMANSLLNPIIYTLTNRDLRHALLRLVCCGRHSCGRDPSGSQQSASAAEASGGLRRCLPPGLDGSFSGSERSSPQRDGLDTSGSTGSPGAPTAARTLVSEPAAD
# DRD2 (D2 long receptor) = DRD2 (D2 long receptor) (Homo sapiens, UniProt P14416); test: Gαi1-γ2 dissociation BRET assay, HEK293T; details: agonist
# DRD2 (D2 long receptor), sequence (P14416 whole entry): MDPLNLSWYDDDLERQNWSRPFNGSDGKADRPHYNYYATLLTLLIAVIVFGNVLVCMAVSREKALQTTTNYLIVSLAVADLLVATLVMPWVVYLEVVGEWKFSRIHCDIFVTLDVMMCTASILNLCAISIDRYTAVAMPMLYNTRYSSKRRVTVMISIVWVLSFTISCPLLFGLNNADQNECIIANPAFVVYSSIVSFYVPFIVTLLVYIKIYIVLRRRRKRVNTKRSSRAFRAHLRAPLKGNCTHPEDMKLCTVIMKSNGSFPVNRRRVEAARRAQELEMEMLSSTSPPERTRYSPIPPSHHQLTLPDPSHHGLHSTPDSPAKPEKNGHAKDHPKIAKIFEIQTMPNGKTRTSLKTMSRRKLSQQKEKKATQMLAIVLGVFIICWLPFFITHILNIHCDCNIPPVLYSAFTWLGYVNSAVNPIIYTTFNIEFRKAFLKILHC
# [5] = Fig_5f, single replicate values
# 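For GPCRome agonism screen response in this document: fold over basal response of each receptor without drug.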
Structure (SMILES),GPCRome screening signal at PTH2R (320 non-olfactory GPCRs [1]; [5]),GPCRome screening signal at PTH1R (320 non-olfactory GPCRs [2]; [5]),GPCRome screening signal at RXFP2 (320 non-olfactory GPCRs [3]; [5]),GPCRome screening signal at S1PR5 (320 non-olfactory GPCRs [4]; [5]),"GPCRome agonism screen response (320 non-olfactory GPCRs [1]; replicate values, Fig_4g)","GPCRome agonism screen response (320 non-olfactory GPCRs [2]; replicate values, Fig_4g)","GPCRome agonism screen response (320 non-olfactory GPCRs [3]; replicate values, Fig_4g)","GPCRome agonism screen response (320 non-olfactory GPCRs [4]; replicate values, Fig_4g)",EC50 (DRD2 (D2 long receptor)) [nM]
CCOc1ccccc1CCC(C)NCC1(O)CCCCC1.Cl (racemic) [Fig_5f],0.8447 and 0.9374 and 0.7725 and 1.472,2.489 and 1.041 and 1.352 and 1.077,1.049 and 1.08 and 1.42 and 0.7752,0.8048 and 0.6191 and 0.7126 and 0.9361,,,,,
CCOc1cccc2cc(C(C)NCC3(O)CCCCC3)oc12 (stereo not drawn) [O4LE6],,,,,1.171 and 0.1179 and 1.638 and 1.06,0.6677 and 0.9983 and 1.484 and 1.06,0.9912 and 0.8618 and 0.6803 and 0.6522,0.6595 and 0.787 and 0.6694 and 0.8628,24.1

# Source: publication PMC7044277 (Nature Communications, 2020)
